ChEMBL document CHEMBL3352619, “Design, synthesis and biological evaluation of novel 6,7-disubstituted-4-phenoxyquinoline derivatives bearing 4-oxo-3,4-dihydrophthalazine-1-carboxamide moieties as c-Met kinase inhibitors” (Bioorg Med Chem, 2014)

Tests used:
[1] = Cytotoxicity against human MKN45 cells after 72 hrs by MTT assay; details: MKN-45, 72 h
HT-29 = assay: Cytotoxicity against human HT-29 cells after 72 hrs by MTT assay; details: HT-29, 72 h
MDA-MB-231 = assay: cells; details: Homo sapiens, MDA-MB-231, 72 h
Description: Cytotoxicity against human MDA-MB-231 cells after 72 hrs by MTT assay

[2] = Cytotoxicity against human H460 cells after 72 hrs by MTT assay; details: NCI-H460, 72 h
[3] = target: T1, Receptor-type tyrosine-protein kinase FLT3 (Homo sapiens, UniProt P36888); assay: Inhibition of FLT3 (unknown origin) after 30 mins using poly (Glu,Tyr)4:1 substrate
T1 sequence (P36888 whole entry): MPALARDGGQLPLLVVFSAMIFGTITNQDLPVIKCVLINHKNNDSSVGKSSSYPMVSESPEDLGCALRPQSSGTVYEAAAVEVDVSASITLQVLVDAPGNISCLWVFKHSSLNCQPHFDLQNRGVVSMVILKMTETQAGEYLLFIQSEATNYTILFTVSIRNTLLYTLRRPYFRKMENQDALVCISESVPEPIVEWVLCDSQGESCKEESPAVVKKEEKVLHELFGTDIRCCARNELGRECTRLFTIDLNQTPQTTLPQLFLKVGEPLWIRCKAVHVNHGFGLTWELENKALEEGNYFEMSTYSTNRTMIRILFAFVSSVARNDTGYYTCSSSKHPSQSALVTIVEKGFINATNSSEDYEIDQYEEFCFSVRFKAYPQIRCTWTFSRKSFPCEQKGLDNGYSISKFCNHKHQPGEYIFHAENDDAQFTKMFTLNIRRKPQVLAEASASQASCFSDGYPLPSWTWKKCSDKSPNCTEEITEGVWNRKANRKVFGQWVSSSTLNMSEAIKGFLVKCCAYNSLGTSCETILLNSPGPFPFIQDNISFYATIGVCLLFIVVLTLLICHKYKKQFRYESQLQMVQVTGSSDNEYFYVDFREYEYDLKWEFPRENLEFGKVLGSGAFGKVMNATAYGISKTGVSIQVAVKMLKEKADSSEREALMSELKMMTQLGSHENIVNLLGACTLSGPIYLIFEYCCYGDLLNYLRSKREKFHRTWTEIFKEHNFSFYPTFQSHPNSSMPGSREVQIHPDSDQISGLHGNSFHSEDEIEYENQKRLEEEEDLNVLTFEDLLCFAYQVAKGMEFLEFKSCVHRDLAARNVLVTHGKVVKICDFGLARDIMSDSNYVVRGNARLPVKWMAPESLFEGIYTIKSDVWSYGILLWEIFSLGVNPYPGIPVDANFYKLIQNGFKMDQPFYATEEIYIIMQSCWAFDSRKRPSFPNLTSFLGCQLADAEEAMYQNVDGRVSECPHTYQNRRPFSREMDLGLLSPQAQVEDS

[4] = target: Hepatocyte growth factor receptor (Homo sapiens, UniProt P08581); assay: Inhibition of c-Met (unknown origin) after 30 mins using poly (Glu,Tyr)4:1 substrate
[5] = target: Vascular endothelial growth factor receptor 2 (Homo sapiens, UniProt P35968); assay: Inhibition of VEGFR2 (unknown origin) after 30 mins using poly (Glu,Tyr)4:1 substrate
[6] = target: Mast/stem cell growth factor receptor Kit (Homo sapiens, UniProt P10721); assay: Inhibition of c-KIT (unknown origin) after 30 mins using poly (Glu,Tyr)4:1 substrate
[7] = target: Epidermal growth factor receptor (Homo sapiens, UniProt P00533); assay: Inhibition of EGFR (unknown origin) after 30 mins using poly (Glu,Tyr)4:1 substrate
[8] = target: Platelet-derived growth factor receptor alpha (Homo sapiens, UniProt P16234); assay: Inhibition of PDGFRalpha (unknown origin) after 30 mins using poly (Glu,Tyr)4:1 substrate
Platelet-derived growth factor receptor alpha, sequence (P16234 whole entry): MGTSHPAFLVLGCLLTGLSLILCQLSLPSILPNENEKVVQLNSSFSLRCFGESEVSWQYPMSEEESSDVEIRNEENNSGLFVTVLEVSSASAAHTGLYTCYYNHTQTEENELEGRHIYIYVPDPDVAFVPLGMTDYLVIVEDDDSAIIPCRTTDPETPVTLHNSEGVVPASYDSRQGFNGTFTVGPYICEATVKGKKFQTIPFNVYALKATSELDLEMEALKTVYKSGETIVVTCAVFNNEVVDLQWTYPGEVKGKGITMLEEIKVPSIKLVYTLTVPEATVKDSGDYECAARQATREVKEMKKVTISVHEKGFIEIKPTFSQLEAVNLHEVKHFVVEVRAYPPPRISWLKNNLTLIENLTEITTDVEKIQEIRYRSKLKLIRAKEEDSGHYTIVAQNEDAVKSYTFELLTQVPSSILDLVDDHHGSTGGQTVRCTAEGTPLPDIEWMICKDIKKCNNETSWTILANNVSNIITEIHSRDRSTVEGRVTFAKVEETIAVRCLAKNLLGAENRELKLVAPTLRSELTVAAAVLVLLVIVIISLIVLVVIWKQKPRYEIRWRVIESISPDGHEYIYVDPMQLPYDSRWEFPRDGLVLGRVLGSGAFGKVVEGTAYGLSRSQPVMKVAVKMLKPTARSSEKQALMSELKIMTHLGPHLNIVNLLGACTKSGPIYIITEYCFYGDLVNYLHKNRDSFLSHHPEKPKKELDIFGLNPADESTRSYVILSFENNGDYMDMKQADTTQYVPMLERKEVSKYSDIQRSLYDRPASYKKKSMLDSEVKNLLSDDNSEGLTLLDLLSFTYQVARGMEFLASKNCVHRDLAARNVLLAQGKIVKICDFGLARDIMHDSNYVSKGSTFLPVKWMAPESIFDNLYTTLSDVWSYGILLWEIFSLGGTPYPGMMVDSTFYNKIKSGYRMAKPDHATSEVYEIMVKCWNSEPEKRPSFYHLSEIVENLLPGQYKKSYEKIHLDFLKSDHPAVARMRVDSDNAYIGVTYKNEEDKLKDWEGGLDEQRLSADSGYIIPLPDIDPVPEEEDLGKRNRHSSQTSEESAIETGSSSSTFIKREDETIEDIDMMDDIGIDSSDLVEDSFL

Mast/stem cell growth factor receptor Kit, sequence (P10721 whole entry): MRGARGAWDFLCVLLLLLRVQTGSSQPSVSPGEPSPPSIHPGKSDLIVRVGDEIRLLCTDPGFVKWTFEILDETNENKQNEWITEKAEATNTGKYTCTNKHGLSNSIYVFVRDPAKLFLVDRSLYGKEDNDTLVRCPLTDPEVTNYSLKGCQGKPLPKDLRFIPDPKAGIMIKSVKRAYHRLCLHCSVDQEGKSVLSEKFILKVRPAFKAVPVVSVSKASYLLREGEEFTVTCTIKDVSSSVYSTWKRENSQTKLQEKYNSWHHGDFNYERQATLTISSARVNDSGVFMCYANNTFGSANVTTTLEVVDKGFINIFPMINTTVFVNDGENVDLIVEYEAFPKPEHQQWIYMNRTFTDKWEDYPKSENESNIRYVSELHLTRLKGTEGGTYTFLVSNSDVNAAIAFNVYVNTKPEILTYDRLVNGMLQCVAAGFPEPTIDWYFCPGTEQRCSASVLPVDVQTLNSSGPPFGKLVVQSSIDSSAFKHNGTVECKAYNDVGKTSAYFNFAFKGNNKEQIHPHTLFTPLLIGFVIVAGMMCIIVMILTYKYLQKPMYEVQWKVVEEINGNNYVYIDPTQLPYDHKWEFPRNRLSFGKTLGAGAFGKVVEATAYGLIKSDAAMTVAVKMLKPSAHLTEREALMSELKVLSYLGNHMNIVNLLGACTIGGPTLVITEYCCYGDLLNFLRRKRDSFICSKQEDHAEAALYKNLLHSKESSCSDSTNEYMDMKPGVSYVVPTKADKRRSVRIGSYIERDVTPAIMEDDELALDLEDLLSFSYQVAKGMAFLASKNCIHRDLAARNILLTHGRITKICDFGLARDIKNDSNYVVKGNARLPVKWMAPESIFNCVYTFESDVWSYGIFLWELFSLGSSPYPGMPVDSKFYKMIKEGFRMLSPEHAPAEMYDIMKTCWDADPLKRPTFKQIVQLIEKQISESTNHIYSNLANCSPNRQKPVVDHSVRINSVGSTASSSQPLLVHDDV
Epidermal growth factor receptor, sequence (P00533 whole entry): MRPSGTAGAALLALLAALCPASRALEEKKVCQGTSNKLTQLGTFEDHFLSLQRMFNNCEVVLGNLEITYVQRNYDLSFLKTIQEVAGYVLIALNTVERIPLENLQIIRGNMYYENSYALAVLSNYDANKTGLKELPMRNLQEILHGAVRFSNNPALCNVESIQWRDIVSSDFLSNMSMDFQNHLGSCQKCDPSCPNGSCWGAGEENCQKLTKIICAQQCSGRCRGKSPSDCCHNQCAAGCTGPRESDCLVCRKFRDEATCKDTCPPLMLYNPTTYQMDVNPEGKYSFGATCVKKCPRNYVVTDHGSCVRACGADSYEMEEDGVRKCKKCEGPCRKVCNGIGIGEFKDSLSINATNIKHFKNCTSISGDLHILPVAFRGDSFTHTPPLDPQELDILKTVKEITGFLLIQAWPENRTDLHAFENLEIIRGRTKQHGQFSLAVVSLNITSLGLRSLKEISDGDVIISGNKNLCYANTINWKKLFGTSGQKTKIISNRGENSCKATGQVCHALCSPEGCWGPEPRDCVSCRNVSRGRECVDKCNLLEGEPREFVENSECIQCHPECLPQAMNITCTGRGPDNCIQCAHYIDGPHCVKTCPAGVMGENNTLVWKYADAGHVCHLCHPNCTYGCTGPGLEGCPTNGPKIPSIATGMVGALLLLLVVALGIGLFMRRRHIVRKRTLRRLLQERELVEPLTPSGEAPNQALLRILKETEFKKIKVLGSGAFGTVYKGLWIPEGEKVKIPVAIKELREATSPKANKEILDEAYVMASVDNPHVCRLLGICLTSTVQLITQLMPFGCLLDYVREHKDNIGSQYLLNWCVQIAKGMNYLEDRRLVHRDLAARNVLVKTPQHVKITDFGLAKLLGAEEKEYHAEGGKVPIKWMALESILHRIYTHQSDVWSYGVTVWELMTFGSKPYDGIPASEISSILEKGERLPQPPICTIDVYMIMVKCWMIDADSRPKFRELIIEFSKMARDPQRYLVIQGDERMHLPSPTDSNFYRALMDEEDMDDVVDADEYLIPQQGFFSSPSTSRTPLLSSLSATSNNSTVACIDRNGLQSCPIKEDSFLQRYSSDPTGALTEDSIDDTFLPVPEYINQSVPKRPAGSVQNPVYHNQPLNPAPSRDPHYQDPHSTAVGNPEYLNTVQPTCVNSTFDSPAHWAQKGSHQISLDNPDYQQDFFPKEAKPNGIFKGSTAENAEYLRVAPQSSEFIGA
Hepatocyte growth factor receptor, sequence (P08581 whole entry): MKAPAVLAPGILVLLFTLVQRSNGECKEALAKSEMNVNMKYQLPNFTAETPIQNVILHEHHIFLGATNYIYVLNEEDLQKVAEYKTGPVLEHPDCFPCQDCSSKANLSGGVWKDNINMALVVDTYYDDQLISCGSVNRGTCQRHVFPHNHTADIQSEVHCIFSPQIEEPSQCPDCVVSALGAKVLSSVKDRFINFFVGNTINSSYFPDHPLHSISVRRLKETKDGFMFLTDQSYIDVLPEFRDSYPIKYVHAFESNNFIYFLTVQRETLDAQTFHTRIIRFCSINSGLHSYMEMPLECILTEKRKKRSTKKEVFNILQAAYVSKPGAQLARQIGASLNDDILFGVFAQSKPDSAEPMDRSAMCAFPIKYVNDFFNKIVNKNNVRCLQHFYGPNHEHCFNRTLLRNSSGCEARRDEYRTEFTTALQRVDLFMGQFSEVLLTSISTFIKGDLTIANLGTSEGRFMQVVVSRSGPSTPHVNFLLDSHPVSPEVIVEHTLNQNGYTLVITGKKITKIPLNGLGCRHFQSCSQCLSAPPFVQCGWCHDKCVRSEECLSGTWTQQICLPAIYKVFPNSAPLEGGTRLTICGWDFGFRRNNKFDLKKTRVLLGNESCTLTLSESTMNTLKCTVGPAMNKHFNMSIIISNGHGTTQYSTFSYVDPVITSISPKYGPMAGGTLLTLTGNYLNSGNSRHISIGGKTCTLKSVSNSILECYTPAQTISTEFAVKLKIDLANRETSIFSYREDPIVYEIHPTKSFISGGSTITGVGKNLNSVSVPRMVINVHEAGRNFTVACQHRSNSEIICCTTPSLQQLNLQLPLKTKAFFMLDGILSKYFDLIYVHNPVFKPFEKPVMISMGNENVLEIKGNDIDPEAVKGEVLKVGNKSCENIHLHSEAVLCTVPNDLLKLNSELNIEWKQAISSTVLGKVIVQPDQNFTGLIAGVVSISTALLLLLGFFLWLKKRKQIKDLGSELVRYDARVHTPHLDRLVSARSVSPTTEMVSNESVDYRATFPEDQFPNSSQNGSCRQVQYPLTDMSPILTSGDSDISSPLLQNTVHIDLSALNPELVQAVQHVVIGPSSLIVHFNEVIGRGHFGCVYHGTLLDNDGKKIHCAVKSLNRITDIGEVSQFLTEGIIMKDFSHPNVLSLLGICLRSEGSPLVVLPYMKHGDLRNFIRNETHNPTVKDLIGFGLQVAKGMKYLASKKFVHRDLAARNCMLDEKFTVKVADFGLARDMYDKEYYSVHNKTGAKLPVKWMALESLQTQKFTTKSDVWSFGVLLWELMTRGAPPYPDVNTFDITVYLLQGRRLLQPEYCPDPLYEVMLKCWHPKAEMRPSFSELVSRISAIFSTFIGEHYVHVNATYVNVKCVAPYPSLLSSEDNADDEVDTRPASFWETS

Row | IC50 (MDA-MB-231) | IC50 [3] | IC50 [4] | IC50 [5] | IC50 [6] | IC50 [7] | IC50 [8] | SMILES | IC50 [1] | IC50 (HT-29) | IC50 [2]
1 |  |  |  |  |  |  |  | COc1cc2c(Oc3ccc(NC(=O)c4nn(-c5ccc(F)cc5)c(=O)c5ccccc45)cc3F)ccnc2cc1OCCCN1CCCCC1 | 0.18 µM | 0.29 µM | 
2 | 4.01 µM |  |  |  |  |  |  | COc1cc2c(Oc3ccc(NC(=O)c4nn(-c5ccc([N+](=O)[O-])cc5)c(=O)c5ccccc45)cc3F)ccnc2cc1OCCCN1CCC(C)CC1 | 1.15 µM | 2.45 µM | 1.34 µM
3 | 1.16 µM |  |  |  |  |  |  | COc1cc2c(Oc3ccc(NC(=O)c4nn(-c5ccc(Br)cc5)c(=O)c5ccccc45)cc3F)ccnc2cc1OCCCN1CCCC1 | 0.23 µM | 0.67 µM | 0.18 µM
4 | 1.23 µM |  |  |  |  |  |  | COc1cc2c(Oc3ccc(NC(=O)c4nn(-c5ccccc5)c(=O)c5ccccc45)cc3F)ccnc2cc1OCCCN1CCOCC1 | 0.43 µM | 1.38 µM | 0.58 µM
5 | 1.24 µM |  |  |  |  |  |  | COc1cc2c(Oc3ccc(NC(=O)c4nn(-c5ccccc5Br)c(=O)c5ccccc45)cc3F)ccnc2cc1OCCCN1CCC(C)CC1 | 0.51 µM | 0.95 µM | 0.39 µM
6 |  |  |  |  |  |  |  | COc1cc2c(Oc3ccc(NC(=O)c4nn(-c5ccc(F)cc5)c(=O)c5ccccc45)cc3F)ccnc2cc1OCCCN1CCN(C)CC1 | 0.15 µM | 0.32 µM | 
7 | 1.05 µM |  |  |  |  |  |  | COc1cc2c(Oc3ccc(NC(=O)c4nn(-c5ccccc5F)c(=O)c5ccccc45)cc3F)ccnc2cc1OCCCN1CCN(C)CC1 | 0.21 µM | 0.48 µM | 0.23 µM
8 | 1.56 µM |  |  |  |  |  |  | COc1cc2c(Oc3ccc(NC(=O)c4nn(-c5ccccc5Br)c(=O)c5ccccc45)cc3F)ccnc2cc1OCCCN1CCOCC1 | 0.45 µM | 0.68 µM | 0.37 µM
9 | 2.98 µM |  |  |  |  |  |  | COc1cc2c(Oc3ccc(NC(=O)c4nn(-c5ccc([N+](=O)[O-])cc5)c(=O)c5ccccc45)cc3F)ccnc2cc1OCCCN1CCCC1 | 1.62 µM | 1.76 µM | 1.24 µM
10 | 3.48 µM |  |  |  |  |  |  | COc1cc2c(Oc3ccc(NC(=O)c4nn(-c5ccc([N+](=O)[O-])cc5)c(=O)c5ccccc45)cc3F)ccnc2cc1OCCCN1CCOCC1 | 1.94 µM | 2.52 µM | 1.89 µM
11 | 1.37 µM |  |  |  |  |  |  | COc1cc2c(Oc3ccc(NC(=O)c4nn(-c5ccc(Br)cc5)c(=O)c5ccccc45)cc3F)ccnc2cc1OCCCN1CCN(C)CC1 | 0.35 µM | 0.85 µM | 0.25 µM
12 |  |  |  |  |  |  |  | COc1cc2c(Oc3ccc(NC(=O)c4nn(-c5ccccc5F)c(=O)c5ccccc45)cc3F)ccnc2cc1OCCCN1CCCC1 | 0.14 µM | 0.4 µM | 
13 | 1.58 µM |  |  |  |  |  |  | COc1cc2c(Oc3ccc(NC(=O)c4nn(-c5ccccc5)c(=O)c5ccccc45)cc3F)ccnc2cc1OCCCN1CCN(C)CC1 | 0.62 µM | 1.14 µM | 0.45 µM
14 | 1.48 µM |  |  |  |  |  |  | COc1cc2c(Oc3ccc(NC(=O)c4nn(-c5ccccc5)c(=O)c5ccccc45)cc3F)ccnc2cc1OCCCN1CCC(C)CC1 | 0.58 µM | 1.04 µM | 0.55 µM
15 | 0.67 µM |  |  |  |  |  |  | COc1cc2c(Oc3ccc(NC(=O)c4nn(-c5ccc(F)cc5)c(=O)c5ccccc45)cc3F)ccnc2cc1OCCCN1CCOCC1 | 0.09 µM | 0.26 µM | 0.1 µM
16 | 3.98 µM |  |  |  |  |  |  | COc1ccc(-n2nc(C(=O)Nc3ccc(Oc4ccnc5cc(OCCCN6CCN(C)CC6)c(OC)cc45)c(F)c3)c3ccccc3c2=O)cc1 | 1.32 µM | 3.7 µM | 1.11 µM
17 | 1.02 µM |  |  |  |  |  |  | COc1cc2c(Oc3ccc(NC(=O)c4nn(-c5ccccc5Br)c(=O)c5ccccc45)cc3F)ccnc2cc1OCCCN1CCCC1 | 0.41 µM | 0.85 µM | 0.32 µM
18 | 2.62 µM |  |  |  |  |  |  | COc1cc2c(Oc3ccc(NC(=O)c4nn(-c5ccc([N+](=O)[O-])cc5)c(=O)c5ccccc45)cc3F)ccnc2cc1OCCCN1CCCCC1 | 1.14 µM | 2.17 µM | 1.3 µM

Row | IC50 (MDA-MB-231) | IC50 [3] | IC50 [4] | IC50 [5] | IC50 [6] | IC50 [7] | IC50 [8] | SMILES | IC50 [1] | IC50 (HT-29) | IC50 [2]
19 |  |  |  |  |  |  |  | COc1cc2c(Oc3ccc(NC(=O)c4nn(-c5ccccc5)c(=O)c5ccccc45)cc3F)ccnc2cc1OCCCN1CCCC1 | 0.53 µM | 0.98 µM | 
20 | 0.96 µM |  |  |  |  |  |  | COc1cc2c(Oc3ccc(NC(=O)c4nn(-c5ccc(Br)cc5)c(=O)c5ccccc45)cc3F)ccnc2cc1OCCCN1CCOCC1 | 0.34 µM | 0.71 µM | 0.29 µM
21 | 3.98 µM |  |  |  |  |  |  | COc1ccc(-n2nc(C(=O)Nc3ccc(Oc4ccnc5cc(OCCCN6CCOCC6)c(OC)cc45)c(F)c3)c3ccccc3c2=O)cc1 | 1.62 µM | 3.36 µM | 1.24 µM
22 | 0.66 µM |  |  |  |  |  |  | COc1cc2c(Oc3ccc(NC(=O)c4nn(-c5ccc(F)cc5)c(=O)c5ccccc45)cc3F)ccnc2cc1OCCCN1CCC(C)CC1 | 0.13 µM | 0.33 µM | 0.11 µM
23 | 1.88 µM |  |  |  |  |  |  | COc1cc2c(Oc3ccc(NC(=O)c4nn(-c5ccccc5)c(=O)c5ccccc45)cc3F)ccnc2cc1OCCCN1CCCCC1 | 0.59 µM | 1.31 µM | 0.65 µM
24 | 1.13 µM |  |  |  |  |  |  | COc1cc2c(Oc3ccc(NC(=O)c4nn(-c5ccc(Br)cc5)c(=O)c5ccccc45)cc3F)ccnc2cc1OCCCN1CCCCC1 | 0.5 µM | 0.77 µM | 0.41 µM
25 |  |  |  |  |  |  |  | COc1cc2c(Oc3ccc(NC(=O)c4nn(-c5cccc(F)c5)c(=O)c5ccccc45)cc3F)ccnc2cc1OCCCN1CCCC1 | 0.16 µM | 0.46 µM | 
26 | 3.45 µM |  |  |  |  |  |  | COc1ccc(-n2nc(C(=O)Nc3ccc(Oc4ccnc5cc(OCCCN6CCCC6)c(OC)cc45)c(F)c3)c3ccccc3c2=O)cc1 | 1.32 µM | 2.36 µM | 1.65 µM
27 | 0.86 µM |  |  |  |  |  |  | COc1cc2c(Oc3ccc(NC(=O)c4nn(-c5cccc(F)c5)c(=O)c5ccccc45)cc3F)ccnc2cc1OCCCN1CCC(C)CC1 | 0.22 µM | 0.5 µM | 0.19 µM
28 | 0.43 µM | 0.00349 µM | 0.00163 µM | 0.0704 µM | 0.00217 µM | > 10 µM | 0.0157 µM | COc1cc2c(Oc3ccc(NC(=O)c4nn(-c5ccc(F)cc5)c(=O)c5ccccc45)cc3F)ccnc2cc1OCCCN1CCCC1 | 0.071 µM | 0.13 µM | 0.055 µM
29 | 1.16 µM |  |  |  |  |  |  | COc1cc2c(Oc3ccc(NC(=O)c4nn(-c5ccc(Br)cc5)c(=O)c5ccccc45)cc3F)ccnc2cc1OCCCN1CCC(C)CC1 | 0.33 µM | 0.92 µM | 0.35 µM
30 | 0.7 µM |  |  |  |  |  |  | COc1cc2c(Oc3ccc(NC(=O)c4nn(-c5ccccc5F)c(=O)c5ccccc45)cc3F)ccnc2cc1OCCCN1CCOCC1 | 0.15 µM | 0.47 µM | 0.19 µM
31 | 1.68 µM |  |  |  |  |  |  | COc1cc2c(Oc3ccc(NC(=O)c4nn(-c5ccccc5Br)c(=O)c5ccccc45)cc3F)ccnc2cc1OCCCN1CCN(C)CC1 | 0.4 µM | 1.19 µM | 0.29 µM
32 | 2.01 µM |  |  |  |  |  |  | COc1ccc(-n2nc(C(=O)Nc3ccc(Oc4ccnc5cc(OCCCN6CCCCC6)c(OC)cc45)c(F)c3)c3ccccc3c2=O)cc1 | 0.95 µM | 1.45 µM | 0.84 µM
33 | 0.67 µM |  |  |  |  |  |  | COc1cc2c(Oc3ccc(NC(=O)c4nn(-c5ccccc5F)c(=O)c5ccccc45)cc3F)ccnc2cc1OCCCN1CCC(C)CC1 | 0.26 µM | 0.51 µM | 0.2 µM
34 | 0.91 µM |  |  |  |  |  |  | COc1cc2c(Oc3ccc(NC(=O)c4nn(-c5ccccc5F)c(=O)c5ccccc45)cc3F)ccnc2cc1OCCCN1CCCCC1 | 0.35 µM | 0.63 µM | 0.16 µM
35 | 3.49 µM |  |  |  |  |  |  | COc1cc2c(Oc3ccc(NC(=O)c4nn(-c5ccc([N+](=O)[O-])cc5)c(=O)c5ccccc45)cc3F)ccnc2cc1OCCCN1CCN(C)CC1 | 1.32 µM | 2.56 µM | 0.98 µM
